Experimental data: patent EP1149079B1, “TETRAHYDRO ISOQUINO LINEALKANOL DERIVATIVES AND PHARMACEUTICAL COMPOSITIONS CONTAINING SAME” (SK Corporation, priority 1999, dated 2000)

Experiments:
[1] = system: mice; test: Head-twitch test (5-HTP-induced head-twitch response); assay type: in vivo; details: oral, head twitches counted in a 2-minute period 30 min after 5-HTP 100 mg/kg ip, versus vehicle control
Experimental: The head-twitch response of mice is initiated by a variety of 5-HT mimetic drugs. The test was conducted in a manner similar to the procedure described by Heal, D.J., Philpot, J, O'Shaughnessy, K.M. and Davies, C.L.: The influence of central noradrenergic function on 5-HT-mediated head-twitch responses in mice: Possible implications for the actions of antidepressant drugs. Psychopharmacology 89: 414-420, 1986,
The head-twitch consisted of a characteristic rotation of the head, neck and shoulders of the mice. The test drug or vehicle was given by oral gavage. Thirty minutes later all animals were pretreated with carbidopa (25 mg/kg ip). Fifteen minutes following carbidopa administration, the mice were injected with 100 mg/kg ip of L-5-hydroxytryptophan (5-HTP). The animals were then left for 30 minutes before measurement of the head-twitch response in the following 2-minute period. For calculation of percent (%) response increase, the difference in drug head twitch number versus the control vehicle head twitch number is divided by the control head twitch and multiplied by 100.

[2] = molecular target: T1, MAO-A (Rattus norvegicus, UniProt P21396); test: MAO-A inhibiting activity in vitro, radioisotopic assay with [14C] serotonin; assay type: biochemical; details: Rat liver mitochondrial membranes, 300 nM deprenyl to block MAO-B, preincubation 60 minutes at 37°C
T1 construct: Rat liver mitochondrial membranes as the source of the enzyme; from tissue; host or cells: rat liver mitochondrial membranes
T1 sequence (P21396 1-526): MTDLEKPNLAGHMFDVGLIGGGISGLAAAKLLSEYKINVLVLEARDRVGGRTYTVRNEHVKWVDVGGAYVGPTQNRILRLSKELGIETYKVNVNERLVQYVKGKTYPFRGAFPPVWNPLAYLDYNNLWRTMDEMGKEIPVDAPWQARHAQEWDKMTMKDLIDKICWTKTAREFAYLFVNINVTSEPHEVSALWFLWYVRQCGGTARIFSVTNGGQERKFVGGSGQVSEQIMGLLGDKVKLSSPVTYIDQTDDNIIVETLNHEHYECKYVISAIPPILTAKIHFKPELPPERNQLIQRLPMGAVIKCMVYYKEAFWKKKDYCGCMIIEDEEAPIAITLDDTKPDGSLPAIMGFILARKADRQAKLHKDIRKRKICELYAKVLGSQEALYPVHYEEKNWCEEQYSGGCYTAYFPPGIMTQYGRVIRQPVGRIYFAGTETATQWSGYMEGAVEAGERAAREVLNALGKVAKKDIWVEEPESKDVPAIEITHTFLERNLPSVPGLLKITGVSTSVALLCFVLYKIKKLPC
Experimental: The MAO-A activities in vitro were measured using Rat liver mitochondrial membranes as the source of the enzyme, according to modified method of S. Otsuka & Y. Kobayashi. A Radioisotopic Assay for Monoamine Oxidase Determinations in Human Plasma. Biochem. Pharmacol. 13: 995-1006 (1964)
Rat liver mitochondrial membranes is preincubated with drug or vehicle, and subtype selective blocker (300 nM deprenyl to block the B type of MAO) for 60 minutes at 37°C in 100 mM KPO4 (pH 7.2). [^14C] Serotonin ([…]) is then added and incubated for 10 minutes. The reaction is stopped by the addition of 0.5 ml of 2M citric acid. Radioactive product is extracted into a toluene/ethyl acetate fluor and compared to control values by scintillation spectrophotometry in order to ascertain any interactions of test compounds with MAO-A.

[3] = system: mice; test: Behavior Despair (Forced Swimming) test, mice dosed ip; assay type: in vivo; details: reduction in immobility time versus vehicle; dose 30 mg/kg (ip); one hour after dosing; 15-minute test period
Experimental: (§1) Behavior Despair (Forced Swimming) test, a well known pharmacological screening method for depression, was conducted similar to the test described by Porsolt, R.D., Bertin, A. and Jalfre, M.: Behavior despair in mice: A preliminary screening test for antidepressants. Arch. Int. Pharmacodyn. Ther. 229: 327-336, 1977.
Mice were dosed intraperitoneally (ip) with either test compound or vehicle. One hour later each animal was placed in a 1500 mL glass beaker containing water at room temperature. Mice were kept in the water for a period of 15 minutes and the duration of immobility observed within the 15-minute test period was recorded. A mouse was judged to be immobile if it floated motionlessly in the water making only those movements necessary to keep its head above the water. For calculation of percent (%) reduction in immobility time, the difference in immobility time for control vehicle versus the drug is divided by the immobility time of the control vehicle and multiplied by 100.

[4] = system: Rats; test: Behavior Despair (Forced Swimming) test, rats dosed po; assay type: in vivo; details: reduction in immobility time versus vehicle; dose 60 mg/kg (po); one hour after dosing; 4-minute test period
Experimental: as §1
Rats were pre-swam for 10 minute the day before the test in 4000 mL glass cylinders containing water at 25°C. On the following day, rats were dosed orally (po) with either test compound or vehicle. One hour later each animal was placed in the glass cylinder and, following a 2-minute pretest, immobility was recorded for a 4-minute test period. For calculation of percent (%) reduction in immobility time, the difference in immobility time for control vehicle versus the drug is divided by the immobility time of the control vehicle and multiplied by 100.

## NC(=O)OC[C@H]1Cc2ccccc2CN1 [Example 4, (R)-3-Carbamoyloxymethyl-1,2,3,4-tetrahydroisoquinoline]
[1]; dose 15 mg/kg
  % Response Increase: 258%
[2]
  inhibition at 10 µM: 63.9%

## CNC(=S)OC[C@@H]1Cc2ccccc2CN1C(=O)Nc1ccccc1 [Example 17, (S)-3-(N-Methyl-thiocarbamoyloxymethyl)-N-(anilinocarbonyl)-1,2,3,4-tetrahydroisoquinoline]
[3]
  % Reduction: 46%

## NC(=O)OC[C@@H]1Cc2ccccc2CN1 [Example 3, (S)-3-Carbamoyloxymethyl-1,2,3,4-tetrahydroisoquinoline]
[1]; dose 1 mg/kg
  % Response Increase: 238%
[2]
  inhibition at 10 µM: 97.7%
[4]
  % Reduction: 83%

## CN1Cc2ccccc2C[C@H]1COC(N)=O [Example 8, (S)-3-Carbamoyloxymethyl-N-methyl-1,2,3,4-tetrahydroisoquinoline]
[1]; dose 1 mg/kg
  % Response Increase: 77%

## NC(=O)OCC1Cc2ccccc2CN1 (racemic) [Example 5, (RS)-3-Carbamoyloxymethyl-1,2,3,4-tetrahydroisoquinoline]
[1]; dose 3 mg/kg
  % Response Increase: 144%

## CNC(=S)OC[C@@H]1Cc2ccccc2CN1C [Example 18, (S)-3-(N-Methylthiocarbamoyloxymethyl)-N-methyl-1,2,3,4-tetrahydroisoquinoline]
[3]
  % Reduction: 33%

## NC(=S)OCC1Cc2ccccc2CN1 (centres unmarked) [Example 14, 3-Thiocarbamoyloxymethyl-1,2,3,4-tetrahydroisoquinoline]
[1]; dose 8 mg/kg
  % Response Increase: 42%

## CNC(=S)OC[C@@H]1Cc2ccccc2CN1 [Example 16, (S)-3-(N-Methylthiocarbamoyloxymethyl)-1,2,3,4-tetrahydroisoquinoline]
[3]
  % Reduction: 56%
